Data as given in US20210246886A1, “Fluorosulfones” (3M INNOVATIVE PROPERTIES COMPANY, priority 2018, published 2021).

Key:
[1] = Stability as foam additive in polyol/amine catalyst/cyclopentane mixture (fluoride ion release); format: physicochemical; settings: for change of fluoride levels over time (reaction with polyol/amine catalyst mixture): over 48 hours at room temperature; for [F—] at 48 hours / [F—] at time 0: polyol/amine catalyst/foam additive/cyclopentane mixture; for [F—] at 48 hours: aged at room temperature; for [F—] at time 0: room temperature
Description: The stability of Example 3 (perfluorodiethylsulfone) was measured in a standard polyol/amine catalyst/foam blowing agent mixture commonly used in making polyurethane foams. The stability was compared to CE9 (PF-5060) and CE10 (FA-188), both of which are available from 3M Company, St. Paul, Minn., US. Stability was determined by measuring the increase in fluoride ion levels over time after mixing all the components at room temperature. An increase in fluoride ion levels is a measure of the extent to which the fluorinated foam additive is reacting with the polyol/amine catalyst mixture to release fluoride ion. Fluoride ion measurements were made using a ThermoScientific ORION DUAL STAR pH/ISE channel meter and VWR 14002-788 F Fluoride specific electrode. The electrode was calibrated using fluoride standards of 1, 2, 10, and 100 ppm fluoride ion concentration in aqueous TISAB II (Total Ionic Strength Adjustment Buffer) buffer solution.
The Polyol/Amine Catalyst/Blowing Agent/Foam Additive sample mixtures were prepared by mixing ELASTAPOR P 17655R Resin (a polyol/amine catalyst blend obtained from BASF, Ludwigshafen, Germany), cyclopentane (a common foam blowing agent), and Example 3, CE9, or CE10 as a foam additive. Using a SARTORIUS A200S balance, the cyclopentane/foam additive mixtures were made first by mixing 25.5 grams of cyclopentane with 2.3 grams of foam additive. Then 43.1 grams of the ELASTAPOR polyol containing the amine catalyst was transferred to a wide mouth 4 oz glass jar and 7 g of the cyclopentane/foam additive mixture was added and shaken.
After the sample mixtures were thoroughly shaken and mixed, an aliquot was removed and an initial fluoride concentration was determined at time 0 hr. Analytical samples were prepared by diluting 1 g of the sample mixture with 1 g of isopropyl alcohol and 0.5 mL of 1N sulfuric acid in a polypropylene centrifuge tube and mixing thoroughly. The sample was further diluted with 1 g of water and mixed again. From this mixture a 1 mL aliquot was taken and mixed with 1 mL of TISAB II solution in a fresh polypropylene centrifuge tube and mixed thoroughly prior to fluoride ion measurement. An average of 3 independent fluoride measurements were used to determine the fluoride concentration of each sample using the fluoride specific electrode and meter described above. Similar measurements were taken every 24 hours. The results are summarized in Table 8 below after 0 and 48 hours.

male Sprague Dawley rats = test: Inhalation toxicity in rats, single 4-hour whole body exposure; format: in vivo, rat
Description: The inhalation toxicity potential of Example 3 was evaluated in male Sprague Dawley rats after a single 4-hour whole body exposure at atmospheric concentrations of 10,000 ppm (v/v). The test material (purity 98.84%) was administered as received at an appropriate volume to a 40-L test chamber containing 3 rats. The test material vaporized upon addition to the chamber. The air within the chamber was regenerated at appropriate intervals to maintain an 18% oxygen concentration. Three control animals were placed in another chamber filled with ambient air. The day of exposure was designated Day 0. Clinical observations were recorded during the exposure period and for 14 days after exposure. Body weights were recorded prior to exposure (Day 0), on Day 1, Day 2, and 14 days after exposure for both the test material-treated and control animals.

[2] = Thermal stability: fluoride ion after aging neat in Monel pressure vessel; format: physicochemical
Description: The thermal stability of Example 3 and CE1 was determined by placing duplicate 10-gram samples in clean, 40 mL Monel pressure vessels and sealing tightly. The pressure vessels were then placed in a convection oven set at 100° C. for 24 hours. After aging, each sample was mixed with a known weight of ultrapure (18.2 MΩ) water, agitated in a mechanical shaker at high speed for 15 minutes and finally centrifuged to separate the two phases. Fluoride ion concentrations were subsequently measured in the water phase as previously described. This was then followed by another experiment at 150° C. using the same method.

[3] = Hydrolytic stability: free fluoride in water phase after aging with deionized water; format: physicochemical
Description: Duplicate samples of Example 3 and CE1 were tested for hydrolytic stability at 150° C. by placing 10 grams of test material along with 10 grams deionized water in a clean, 40 mL Monel pressure vessel, which was sealed and placed in a convection oven set at 150° C. for 24 hours. After aging, the fluoride concentrations were determined by mixing 1 mL of the water phase from each sample with 1 mL of TISAB II (Total Ionic Strength Buffer) buffer solution. Fluoride ion concentrations were then measured using an ORION EA 940 meter with an ORION 9609BNWB Fluoride-Ion Specific Electrode (ISE) (Thermo Fisher Scientific, Minneapolis, Minn., US). ORION IONPLUS Fluoride standards (1, 2, 10 and 100 ppm Fluoride) were used for the calibration of the meter.
The hydrolytic stability values of Example 3 and CE1 are reported as average parts per million by weight (ppmw) of free fluoride in water in Table 4. Higher levels of free fluoride ion concentration correspond to reduced stability.

| SMILES | change of fluoride levels over time (reaction with polyol/amine catalyst mixture) [1] | [F—] at 48 hours [1] | [F—] at time 0 [1] | mortality and clinical observations (male Sprague Dawley rats; 10,000 ppm (v/v), during 4-hour exposure and throughout 14-day study) | body weight, condition and gross necropsy (male Sprague Dawley rats; 10,000 ppm (v/v), single 4-hour exposure, 14-day study) | approximate inhalation 4-hour LC50 (male Sprague Dawley rats; male Sprague Dawley rats, single 4-hour whole body exposure at 10,000 ppm (v/v), 14 days observation) | Average F concentration after 24 hours at 100° C. ([2]; neat, no water, Monel vessel) | Average F concentration after 24 hours at 150° C. ([2]; neat, no water, Monel vessel) | Average F concentration at room temperature ([2]; thermal stability test, before aging) | Average F concentration after 24 hours at 150° C. with DI H2O ([3]; 10 g sample + 10 g deionized water, Monel vessel, 150° C., 24 hours) | Average F concentration at room temperature ([3]; hydrolytic stability test, before aging) |
| --- | --- | --- | --- | --- | --- | --- | --- | --- | --- | --- | --- |
| FC(F)(F)C(F)(F)C(F)(F)C(F)(F)C(F)(F)C(F)(F)F [CE9] | essentially unchanged | 0.71 ppm | 0.83 ppm |  |  |  |  |  |  |  |  |
| O=S(=O)(C(F)(F)C(F)(F)F)C(F)(F)C(F)(F)F [Example 3, Perfluorodiethylsulfone] | essentially unchanged | 10.67 ppm | 11.74 ppm | no mortality or abnormal clinical observations | gained weight and were normal | greater than 10,000 ppm | <0.05 ppmw | 0.36 ppmw | <0.05 ppmw | 11.55 ppmw | <0.05 ppmw |
